Data taken from US12209072B2, “Cyclopentyl acids as LPA antagonists” (BRISTOL-MYERS SQUIBB COMPANY, priority 2018, dated 2025).

target: T1, human LPA1 (Homo sapiens, UniProt Q92633); test: LPA1 functional antagonist assay (LPA-induced calcium flux); type: cell-based; details: CHO cells overexpressing human LPA1; inhibition of calcium flux induced by 10 nM LPA; read-out: hLPA1 IC50
T1 construct: expressed in transfected cells; host or cells: Chinese hamster ovary (CHO) cells
Procedure: The effectiveness of compounds of the present invention as LPA1 inhibitors can be determined in an LPA1 functional antagonist assay as follows:
Chinese hamster ovary cells overexpressing human LPA1 were plated overnight (15,000 cells/well) in poly-D-lysine coated 384-well microplates (Greiner bio-one, Cat #781946) in DMEM/F12 medium (Gibco, Cat #11039). Following overnight culture, cells were loaded with calcium indicator dye (AAT Bioquest Inc, Cat #34601) for 30 minutes at 37° C. The cells were then equilibrated to room temperature for 30 minutes before the assay. Test compounds solubilized in DMSO were transferred to 384 well non-binding surface plates (Corning, Cat #3575) using the Labcyte Echo acoustic dispense and diluted with assay buffer [1×HBSS with calcium/magnesium (Gibco Cat #14025-092), 20 mM HEPES (Gibco Cat #15630-080) and 0.1% fatty acid free BSA (Sigma Cat #A9205)] to a final concentration of 0.5% DMSO. Diluted compounds were added to the cells by FDSS6000 (Hamamatsu) at final concentrations ranging from 0.08 nM to 5 μM. and were then incubated for 20 min at room temperature at which time LPA (Avanti Polar Lipids Cat #857130C) was added at final concentrations of 10 nM to stimulate the cells. The compound IC50 value was defined as the concentration of test compound which inhibited 50% of the calcium flux induced by LPA alone. IC50 values were determined by fitting data to a 4-parameter logistic equation (GraphPad Prism, San Diego CA).

T1 sequence (Q92633 whole entry): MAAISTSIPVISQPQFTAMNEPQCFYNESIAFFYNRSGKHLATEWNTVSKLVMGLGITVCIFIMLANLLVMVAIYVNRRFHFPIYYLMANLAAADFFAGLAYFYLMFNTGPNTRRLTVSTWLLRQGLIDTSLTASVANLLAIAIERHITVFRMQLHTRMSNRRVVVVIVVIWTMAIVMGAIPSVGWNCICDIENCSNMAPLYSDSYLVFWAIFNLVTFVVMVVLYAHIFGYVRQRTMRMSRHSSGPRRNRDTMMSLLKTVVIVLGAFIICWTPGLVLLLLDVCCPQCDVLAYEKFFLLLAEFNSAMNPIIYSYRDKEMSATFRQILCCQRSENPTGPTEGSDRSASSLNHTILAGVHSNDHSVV

**Q.** For `Cc1nc(-c2nnn(C)c2COC(=O)N(C)CC2CCC2)ccc1O[C@H]1CC[C@H](C2(C(=O)O)CC2)C1` (racemic) [Example 53, (±)-trans-1-[3-({6-[5-({[(cyclobutyl-methyl)(methyl)carbamoyl]oxy}methyl)-1-methyl-1H-1,2,3-triazol-4-yl]-2-methylpyridin-3-yl}oxy)cyclo-pentyl]cyclopropane-1-carboxylic acid], which IC50 is on record?
**A.** 14 nM

**Q.** How did the IC50 turn out when `Cc1nc(-c2cnn(C)c2COC(=O)N(C)CC2CCC2)cnc1O[C@H]1CC[C@H](C(=O)O)C1` (racemic) [Example 16, (±)-Trans-3-((5-(5-((((cyclobutylmethyl)(methyl)carbamoyl)oxy)methyl)-1-methyl-1H-pyrazol-4-yl)-3-methylpyrazin-2-yl)oxy)cyclopentanecarboxylic Acid] was run?
**A.** 202 nM

**Q.** `Cc1nc(-c2onc(C)c2COC(=O)N(C)C2CCCC2)ccc1O[C@H]1CC[C@H](C(=O)O)C1` (racemic) [Example 77, (±)-trans-3-({6-[4-({[cyclopentyl(methyl)carbamoyl]oxy}methyl)-3-methyl-1,2-oxazol-5-yl]-2-methyl-pyridin-3-yl}oxy)cyclopentane-1-carboxylic acid] was tested. Which IC50 did it give?
**A.** 66 nM

**Q.** With `Cc1nc(-c2nnn(C)c2CNc2nccc(-c3ccccn3)n2)ccc1O[C@@H]1CC[C@@H](CC(=O)O)C1` (relative stereo) [Example 38, 2-(trans-3-((2-methyl-6-(1-methyl-5-(((4-(pyridin-2-yl)pyrimidin-2-yl)amino)methyl)-1H-1,2,3-triazol-4-yl)pyridin-3-yl)oxy)cyclopentyl)acetic acid] as the compound, how does the IC50 read?
**A.** 579 nM

**Q.** For `Cc1nc(-c2cnn(C)c2CNC(=O)OCc2ccccc2)cnc1O[C@H]1CC[C@H](C(=O)O)C1` (single isomer, unassigned) [Example 19, Trans-3-((5-(5-((((benzyloxy)carbonyl)amino)methyl)-1-methyl-1H-pyrazol-4-yl)-3-methylpyrazin-2-yl)oxy)cyclopentanecarboxylic Acid], which IC50 is on record?
**A.** 202 nM

**Q.** Which IC50 does the source give for `Cc1noc(-c2ccc(OC3CCC(C(=O)O)C3)cn2)c1CNc1nccc(-c2ccccc2)n1` (single isomer, unassigned) [Example 43] here?
**A.** 50 nM

**Q.** Which IC50 does the source give for `Cc1nc(-c2nnn(C)c2NC(=O)OCC(C)C)ccc1O[C@H]1CC[C@H](CC(=O)O)C1` (racemic) [Example 81, (±)-Trans-2-(3-((6-(5-((isobutoxycarbonyl)amino)-1-methyl-1H-1,2,3-triazol-4-yl)-2-methylpyridin-3-yl)oxy)cyclopentyl)acetic Acid] here?
**A.** 613 nM

**Q.** With `Cc1nc(-c2nnn(C)c2COC(=O)N(C)CC2CCC2)c(F)cc1O[C@H]1CC[C@H](CC(=O)O)C1` (racemic) [Example 70, (±)-trans-2-[3-({6-[5-({[(cyclobutyl-methyl)(methyl)carbamoyl]oxy}methyl)-1-methyl-1H-1,2,3-triazol-4-yl]-5-fluoro-2-methyl-pyridin-3-yl}oxy)cyclopentyl]acetic acid] as the compound, how does the IC50 read?
**A.** 220 nM

**Q.** For `Cc1nc(-c2nnn(C)c2COC(=O)N(C)CC2CCC2)ccc1O[C@H]1CC[C@H](C(=O)O)C1` (single isomer, unassigned) [Example 78, Trans-(1,3)-3-({6-[5-({[(cyclobutyl-methyl)(methyl)carbamoyl]oxy}methyl)-1-methyl-1H-1,2,3-triazol-4-yl]-2-methylpyridin-3-yl}oxy)cyclopentane-1-carboxylic acid], which IC50 is on record?
**A.** 28 nM

**Q.** How did the IC50 turn out when `CCCCN(C)C(=O)OCc1c(-c2nc(C)c(O[C@H]3CC[C@H](CC(=O)O)C3)cc2F)nnn1C` (racemic) [Example 68, (±)-trans-2-[3-({6-[5-({[butyl(methyl)carbamoyl]oxy}methyl)-1-methyl-1H-1,2,3-triazol-4-yl]-5-fluoro-2-methyl-pyridin-3-yl}oxy)cyclopentyl]acetic acid] was run?
**A.** 147 nM

**Q.** For `Cc1nc(-c2nnn(C)c2COC(=O)N(C)CC2CCC2)ccc1O[C@H]1CC[C@H](CC(=O)O)C1` (single isomer, unassigned) [Example 7, (±)-Trans-2-((1,3)-3-((6-(5-((((cyclobutylmethyl)(methyl)carbamoyl)oxy)methyl)-1-methyl-1H-1,2,3-triazol-4-yl)-2-methylpyridin-3-yl)oxy)cyclopentyl) acetic Acid], which IC50 is on record?
**A.** 750 nM

**Q.** `Cc1nc(-c2nnn(C)c2NC(=O)OCC2CC2)ccc1O[C@H]1CC[C@H](CC(=O)O)C1` (racemic) [Example 83, (±)-trans-2-[3-{[6-(5-{(cyclopropylmethoxy)carbonyl]amino}-1-methyl-1H-1,2,3-triazol-4-yl)-2-methyl-pyridin-3-yl]oxy}cyclopentyl]acetic acid] was tested. Which IC50 did it give?
**A.** 1230 nM

**Q.** With `CCCCN(C)C(=O)OCc1c(-c2ccc(O[C@@H]3CC[C@@H](CC(=O)O)C3)c(CC)n2)nnn1C` (racemic) [Example 86, (±)-2-((trans)-3-((6-(5-(((butyl(methyl)carbamoyl)oxy)methyl)-1-methyl-1H-1,2,3-triazol-4-yl)-2-ethylpyridin-3-yl)oxy)cyclopentyl)acetic acid] as the compound, how does the IC50 read?
**A.** 48 nM

**Q.** For `Cc1nc(-c2nnn(C)c2COC(=O)N(C)Cc2ccccc2)ccc1O[C@@H]1CC[C@@H](C(=O)O)C1` (racemic) [Example 22, (±)-trans-3-((6-(5-(((benzyl(methyl)carbamoyl)oxy)methyl)-1-methyl-1H-1,2,3-triazol-4-yl)-2-methylpyridin-3-yl)oxy)cyclopentane carboxylic acid], which IC50 is on record?
**A.** 182 nM

**Q.** `Cc1nc(-c2nnn(C)c2CNC(=O)OCc2ccccc2)cnc1O[C@@H]1CC[C@@H](C(=O)O)C1` (racemic) [Example 15, (±)-Trans-3-((5-(5-((((benzyloxy)carbonyl)amino)methyl)-1-methyl-1H-1,2,3-triazol-4-yl)-3-methylpyrazin-2-yl)oxy)cyclopentanecarboxylic Acid] was tested. Which IC50 did it give?
**A.** 714 nM

**Q.** With `CC(C)CCN(C)C(=O)OCc1c(-c2ccc(O[C@H]3CC[C@@H](C(=O)O)C3)cc2)nnn1C` (relative stereo) [Example 12, Cis-3-(4-(5-(((isopentyl(methyl)carbamoyl)oxy)methyl)-1-methyl-1H-1,2,3-triazol-4-yl)phenoxy)cyclo-pentane-1-carboxylic acid] as the compound, how does the IC50 read?
**A.** 448 nM

**Q.** How did the IC50 turn out when `Cc1nc(-c2onc(C)c2COC(=O)N(C)C2CCCC2)ccc1O[C@H]1CC[C@H](C(C)C(=O)O)C1` (mixture of isomers) [Example 51, (±)-trans-2-[3-({6-[4-({[cyclopentyl(methyl)carbamoyl]oxy}methyl)-3-methyl-1,2-oxazol-5-yl]-2-methyl-pyridin-3-yl}oxy)cyclopentyl]propanoic acid] was run?
**A.** 24 nM

**Q.** How did the IC50 turn out when `Cc1nc(-c2nnn(C)c2COC(=O)N(C)CC2CCC2)cnc1O[C@H]1CC[C@H](CC(=O)O)C1` (racemic) [Example 26, (±)-2-(Trans-3-((5-(5-((((cyclobutylmethyl)(methyl)carbamoyl)oxy)methyl)-1-methyl-1H-1,2,3-triazol-4-yl)-3-methylpyrazin-2-yl)oxy)cyclopentyl)acetic Acid] was run?
**A.** 371 nM

**Q.** How did the IC50 turn out when `Cc1nc(-c2nnn(C)c2COC(=O)N(C)CC2CCC2)ccc1O[C@H]1CC[C@H](CC(=O)O)C1` (single isomer, unassigned) [Example 49, (±)-trans-2-[3-({6-[5-({[(cyclobutyl-methyl)(methyl)carbamoyl]oxy}methyl)-1-methyl-1H-1,2,3-triazol-4-yl]-2-methylpyridin-3-yl}oxy)cyclopentyl]acetic acid] was run?
**A.** 13 nM

**Q.** For `Cc1nc(-c2onc(C)c2CNc2nccc(-c3ccccn3)n2)ccc1OC[C@@H]1CC[C@H](C(=O)O)C1` (relative stereo) [Example 35, cis-3-(((2-methyl-6-(3-methyl-4-(((4-(pyridin-2-yl)pyrimidin-2-yl)amino)methyl)isoxazol-5-yl)pyridin-3-yl)oxy)methyl)cyclopentane-1-carboxylic acid], which IC50 is on record?
**A.** 9 nM

**Q.** Which IC50 does the source give for `Cc1nc(-c2onc(C)c2COC(=O)N(C)C2CCCC2)ccc1O[C@H]1CC[C@@H](CC(=O)O)C1` (racemic) [Example 47, (±)-cis-2-[3-({6-[4-({[cyclopentyl(methyl)carbamoyl]oxy}methyl)-3-methyl-1,2-oxazol-5-yl]-2-methyl-pyridin-3-yl}oxy)cyclopentyl]acetic acid] here?
**A.** 25 nM

**Q.** For `Cc1noc(-c2ccc(OC3CCC(C(=O)O)C3)cn2)c1CNc1nccc(-c2ccccc2)n1` (single isomer, unassigned) [Example 45], which IC50 is on record?
**A.** 17 nM

**Q.** Which IC50 does the source give for `Cc1nc(-c2nnn(C)c2COC(=O)N(C)CC2CCC2)ccc1O[C@H]1CC[C@@H](CC(=O)O)C1` (racemic) [Example 48, (±)-cis-2-[3-({6-[5-({[(cyclobutyl-methyl)(methyl)carbamoyl]oxy}methyl)-1-methyl-1H-1,2,3-triazol-4-yl]-2-methylpyridin-3-yl}oxy)cyclopentyl]acetic acid] here?
**A.** 40 nM

**Q.** For `Cc1nc(-c2nnn(C)c2COC(=O)N(C)CC2CCC2)cnc1O[C@H]1CC[C@H](CC(=O)O)C1` (single isomer, unassigned) [Example 27, 2-(trans-3-((5-(5-((((cyclobutylmethyl)(methyl)carbamoyl)oxy)methyl)-1-methyl-1H-1,2,3-triazol-4-yl)-3-methylpyrazin-2-yl)oxy)cyclopentyl)acetic Acid], which IC50 is on record?
**A.** 260 nM
